Assay results reported in ChEMBL document CHEMBL1129420 (J Med Chem, 1996).

Assay: Concentration for hnps- Phospholipase A2 was evaluated using radioligand [3H]arachidonate binding assay in Escherichia coli membranes
Assay type: cell membranes

## CCCCCCCCOCC(COP(=O)(O)OCCN)OP(=O)(O)CCCCCCC (stereo unspecified)
  IC50: 0.2 µM
